Experimental findings from the Biogen ADME set (Fang et al. 2023) are described below.

By aqueous solubility is commonly meant how much of the substance goes into solution per volume.

The conditions of this data set: for aqueous solubility: pH 6.8.

Molecules are shown by their SMILES. Converted amounts (≈) assume the structure as drawn.

Turning to `O=C1Oc2nc3cc4c(cc3cc2CN1CCN1CCOCC1)OCO4`, the MDR1-MDCK efflux ratio worked out at 2.42; the intrinsic clearance, human liver microsomes amounted to 5.18 mL/min/kg; the intrinsic clearance, rat liver microsomes was 28.8 mL/min/kg; the aqueous solubility is 9.6 µg/mL (≈ 26.9 µM).

For `CCCNC(=O)c1ccnc(N(C)C)c1`, the MDR1-MDCK efflux ratio turned out to be 0.616; the intrinsic clearance, human liver microsomes amounted to 39 mL/min/kg; the intrinsic clearance, rat liver microsomes came out at 83.5 mL/min/kg; the aqueous solubility was found to be 38.1 µg/mL (≈ 184 µM).

With `CC(C)(O)Cn1nc(-c2ccccc2)c2c(Cl)c(-c3ccccc3)nnc21`, the MDR1-MDCK efflux ratio was found to be 0.725; the intrinsic clearance, human liver microsomes is at most 4.74 mL/min/kg; the intrinsic clearance, rat liver microsomes amounted to 85.5 mL/min/kg.

As to `CCS(=O)(=O)N1CCC(C(=O)N(C)C2CCCCCCC2)CC1`, the MDR1-MDCK efflux ratio is 1.57; the intrinsic clearance, human liver microsomes was 133 mL/min/kg; the intrinsic clearance, rat liver microsomes was 857 mL/min/kg; the aqueous solubility stood at 51.4 µg/mL (≈ 149 µM).

For the compound `C[C@@H](/C=C\C(F)(F)F)Oc1cc(-c2cc(-c3cc(CN(C)C)cs3)cnc2N)ccc1C(N)=O`, the MDR1-MDCK efflux ratio is 32.7; the intrinsic clearance, human liver microsomes worked out at 20.5 mL/min/kg; the intrinsic clearance, rat liver microsomes worked out at 157 mL/min/kg; the aqueous solubility is 21.2 µg/mL (≈ 43.2 µM).

Regarding `COc1cc2c(cc1OC)CN(C(=O)C1CCCN(S(=O)(=O)c3cccs3)C1)CC2` (stereo unspecified), the MDR1-MDCK efflux ratio is 9.7; the intrinsic clearance, human liver microsomes was determined as 68.3 mL/min/kg; the intrinsic clearance, rat liver microsomes is 707 mL/min/kg; the aqueous solubility stood at 22.1 µg/mL (≈ 49 µM).

On to `CCCCOc1ccccc1-c1cc(C(=O)NCc2ccccc2C)[nH]n1`, for which the MDR1-MDCK efflux ratio was 0.682 and the aqueous solubility amounted to 0.26 µg/mL (≈ 0.715 µM).

Take `Cc1ccccc1N(CC(=O)N(C)C)S(C)(=O)=O`: the MDR1-MDCK efflux ratio was 2; the intrinsic clearance, human liver microsomes is 6.35 mL/min/kg; the intrinsic clearance, rat liver microsomes is 553 mL/min/kg; the aqueous solubility came to 46.7 µg/mL (≈ 173 µM).

Consider `Cc1ncc2c(n1)CN(CCCc1nc3ccccc3o1)CC2`, for which the MDR1-MDCK efflux ratio came out at 0.774; the intrinsic clearance, human liver microsomes turned out to be 84.5 mL/min/kg; the intrinsic clearance, rat liver microsomes was determined as 309 mL/min/kg; the aqueous solubility is 46.6 µg/mL (≈ 151 µM).

Take `O=C(CSc1ncn[nH]1)N(C1CCCCC1)C1CCCCC1`: the MDR1-MDCK efflux ratio was determined as 2.57; the intrinsic clearance, human liver microsomes worked out at 120 mL/min/kg; the intrinsic clearance, rat liver microsomes was determined as 1410 mL/min/kg; the aqueous solubility was 35.7 µg/mL (≈ 111 µM).

With `CC(C)(C)OC(=O)NCCCC(=O)N[C@H]1C[C@@H](n2cnc3c(NCc4ccccc4)ncnc32)[C@@H](O)[C@H]1O`, the MDR1-MDCK efflux ratio worked out at 4.62; the intrinsic clearance, human liver microsomes worked out at 110 mL/min/kg; the intrinsic clearance, rat liver microsomes came to 160 mL/min/kg.

For the compound `NC(=O)C1(Cc2ccc(-c3cccnc3)cc2)CCN(Cc2cccc(Cl)c2)CC1`, the MDR1-MDCK efflux ratio was 4.87; the intrinsic clearance, human liver microsomes came to 183 mL/min/kg; the intrinsic clearance, rat liver microsomes stood at 1360 mL/min/kg; the aqueous solubility was found to be 83.8 µg/mL (≈ 199 µM).

With `CCn1nccc1CNc1ncccn1`, the MDR1-MDCK efflux ratio stood at 0.592; the intrinsic clearance, human liver microsomes was at most 4.74 mL/min/kg; the intrinsic clearance, rat liver microsomes was at most 10.7 mL/min/kg.

Consider `CC(C)Oc1cccc(C(C)NC(=O)c2ccnc(-n3cncn3)c2)c1` (stereo unspecified), for which the MDR1-MDCK efflux ratio stood at 1.81; the intrinsic clearance, human liver microsomes was found to be 70.8 mL/min/kg; the intrinsic clearance, rat liver microsomes was 258 mL/min/kg.

Consider `CC(C)c1noc2nc(C3CC3)cc(C(=O)N3CC[C@H](N)C3)c12`, for which the MDR1-MDCK efflux ratio was 128; the intrinsic clearance, human liver microsomes is at most 4.74 mL/min/kg; the intrinsic clearance, rat liver microsomes is at most 10.7 mL/min/kg; the aqueous solubility worked out at 34.1 µg/mL (≈ 108 µM).

Regarding `COc1ccc2nc(NCc3cnn(C)c3)ccc2c1`, the MDR1-MDCK efflux ratio came out at 0.532; the intrinsic clearance, human liver microsomes came to 28.5 mL/min/kg; the intrinsic clearance, rat liver microsomes was 88.6 mL/min/kg; the aqueous solubility came to 34.8 µg/mL (≈ 130 µM).

On to `CN(C)c1ncn(-c2cccc(N)c2)n1`, for which the MDR1-MDCK efflux ratio worked out at 0.596; the intrinsic clearance, human liver microsomes amounted to 15.3 mL/min/kg; the intrinsic clearance, rat liver microsomes amounted to 25.4 mL/min/kg; the aqueous solubility came to 22.1 µg/mL (≈ 109 µM).

For the compound `C=CC(=O)N1CCC(CNc2ncnc(N)c2-c2ccc(Oc3ccccc3)cc2)CC1`, the MDR1-MDCK efflux ratio was 24.7; the fraction unbound, human plasma was found to be 0.0566; the fraction unbound, rat plasma came to 0.0797; the intrinsic clearance, human liver microsomes came to 191 mL/min/kg. In addition, the intrinsic clearance, rat liver microsomes was determined as 1450 mL/min/kg and the aqueous solubility is 10.1 µg/mL (≈ 23.5 µM).

Regarding `Cc1nccc(-c2cccc(NCc3cc(C)on3)c2)n1`, the MDR1-MDCK efflux ratio is 0.536; the intrinsic clearance, human liver microsomes came out at 59.6 mL/min/kg; the intrinsic clearance, rat liver microsomes was 350 mL/min/kg; the aqueous solubility turned out to be 46.6 µg/mL (≈ 166 µM).

Compound `Cc1cccc(N(C)C(=S)Oc2ccc3ccccc3c2)c1` registered an aqueous solubility of 0.7 µg/mL (≈ 2.28 µM).

In the case of `CCc1noc(-c2ccc(C)c(N)c2)n1`, the intrinsic clearance, human liver microsomes was 209 mL/min/kg and the intrinsic clearance, rat liver microsomes came out at 196 mL/min/kg.

Take `O=C(Nc1ccccn1)c1ccc2c(c1)C(=O)N(C1CCCCC1)C2=O`: the MDR1-MDCK efflux ratio was 0.393; the intrinsic clearance, human liver microsomes came out at 11.8 mL/min/kg; the intrinsic clearance, rat liver microsomes was found to be 791 mL/min/kg.

Consider `CC(=O)N1CCC(Cn2ccnc2-c2cc3ccccc3s2)CC1`, for which the MDR1-MDCK efflux ratio was 14; the intrinsic clearance, human liver microsomes came out at 46.5 mL/min/kg; the intrinsic clearance, rat liver microsomes was found to be 357 mL/min/kg; the aqueous solubility was determined as 35.2 µg/mL (≈ 104 µM).

For `Cc1ccccc1Cn1c(=O)c2c(nc3n(-c4ccccc4O)c(C)cn23)n(C)c1=O`, the MDR1-MDCK efflux ratio worked out at 21.8 and the aqueous solubility stood at 0.91 µg/mL (≈ 2.19 µM).

Regarding `Cc1cc(N(C)C)nc(-n2cnc(C#N)n2)n1`, the MDR1-MDCK efflux ratio amounted to 0.595; the intrinsic clearance, human liver microsomes is 33.6 mL/min/kg; the intrinsic clearance, rat liver microsomes stood at 79.2 mL/min/kg; the aqueous solubility is 23.3 µg/mL (≈ 101 µM).

Consider `O=C(Nn1cnc2ccccc21)c1cc(Cl)ccc1F`, for which the MDR1-MDCK efflux ratio amounted to 0.985; the intrinsic clearance, human liver microsomes is at most 4.74 mL/min/kg; the intrinsic clearance, rat liver microsomes was at most 10.7 mL/min/kg; the aqueous solubility stood at 40.2 µg/mL (≈ 139 µM).

In the case of `COC(=O)c1ccc(NS(=O)(=O)c2ccc3c(c2)n(C)c(=O)n3C)cc1`, the MDR1-MDCK efflux ratio is 20.5 and the aqueous solubility was 15.6 µg/mL (≈ 41.6 µM).

For `COc1cc(OC)cc(-c2nnc(SCC(=O)Nc3cccc(C(=O)O)c3)s2)c1`, the MDR1-MDCK efflux ratio was found to be 0.928; the intrinsic clearance, human liver microsomes was at most 4.74 mL/min/kg; the intrinsic clearance, rat liver microsomes worked out at 48.3 mL/min/kg; the aqueous solubility is 39 µg/mL (≈ 90.4 µM).

In the case of `C=C(C)COc1cccc(C(=O)NCc2nncn2C2CCCCC2)c1`, the MDR1-MDCK efflux ratio came out at 16.9; the intrinsic clearance, human liver microsomes was found to be 158 mL/min/kg; the intrinsic clearance, rat liver microsomes amounted to 2090 mL/min/kg; the aqueous solubility was 26.9 µg/mL (≈ 75.9 µM).

As to `c1cc(Nc2cc(C3CC3)[nH]n2)nc(Nc2ccc3nc[nH]c3c2)n1`, the MDR1-MDCK efflux ratio is 2.39; the intrinsic clearance, human liver microsomes was 15.1 mL/min/kg; the intrinsic clearance, rat liver microsomes was found to be 71.4 mL/min/kg.

With `Cn1nc(CNC(=O)C2CCC2)c2ccccc21`, the MDR1-MDCK efflux ratio was 0.662; the intrinsic clearance, human liver microsomes was found to be 12.5 mL/min/kg; the intrinsic clearance, rat liver microsomes is 147 mL/min/kg.

On to `CN(CCN(C)C1CCCC1)C(=O)c1ccc(-c2nc[nH]n2)cc1`, for which the intrinsic clearance, human liver microsomes was at most 4.74 mL/min/kg; the intrinsic clearance, rat liver microsomes is 19.6 mL/min/kg; the aqueous solubility stood at 36.8 µg/mL (≈ 112 µM).

`Cc1nn(-c2ccc(F)cc2)c2ncc(C(=O)Nc3nc(C4CC4)cs3)cc12` had an intrinsic clearance, human liver microsomes of 5.68 mL/min/kg; an intrinsic clearance, rat liver microsomes of 32.4 mL/min/kg; an aqueous solubility of 5.35 µg/mL (≈ 13.6 µM).

`Cn1cc(-c2nc(C(=O)Nc3cccnc3-n3cncn3)cs2)cn1`: the aqueous solubility was 1.92 µg/mL (≈ 5.43 µM).

On to `O=C(NCc1ccc(CO)c(F)c1)Nc1ccccc1`, for which the MDR1-MDCK efflux ratio is 0.427; the intrinsic clearance, human liver microsomes was at most 4.74 mL/min/kg; the intrinsic clearance, rat liver microsomes stood at 20.8 mL/min/kg; the aqueous solubility is 35.2 µg/mL (≈ 128 µM).

With `Cc1cccc2cc(C(=O)NCCCn3nnc4ccccc43)n(C)c12`, the MDR1-MDCK efflux ratio was 0.886; the intrinsic clearance, human liver microsomes came out at 325 mL/min/kg; the intrinsic clearance, rat liver microsomes was 1410 mL/min/kg.

Consider `c1cncc(-c2nnc3n2[C@H]2CN(Cc4cccs4)C[C@H]2CC3)c1`, for which the MDR1-MDCK efflux ratio was determined as 2.69; the intrinsic clearance, human liver microsomes is 7.21 mL/min/kg; the intrinsic clearance, rat liver microsomes is 343 mL/min/kg.

On to `CSc1ccc(C)c(C(=O)NCCN2CCC(C)CC2)c1`, for which the MDR1-MDCK efflux ratio came out at 0.841; the intrinsic clearance, human liver microsomes is 39.6 mL/min/kg; the intrinsic clearance, rat liver microsomes came to 1750 mL/min/kg.

Regarding `O=C(Nc1ccc2c3c(cccc13)CC2)c1ccc(-n2cncn2)cc1`, the MDR1-MDCK efflux ratio was 0.473 and the aqueous solubility amounted to 0.18 µg/mL (≈ 0.529 µM).

As to `CN1C(=O)N(CC(=O)NCc2ccc(Cl)cc2)C(=O)C12CCCCC2`, the MDR1-MDCK efflux ratio came to 5.53; the intrinsic clearance, human liver microsomes was 796 mL/min/kg; the intrinsic clearance, rat liver microsomes was 2110 mL/min/kg; the aqueous solubility came to 50.7 µg/mL (≈ 139 µM).

For `CCc1[nH]nc(NC2CCC(C(=O)OC)CC2)c1C` (stereo unspecified), the MDR1-MDCK efflux ratio came out at 0.826; the intrinsic clearance, human liver microsomes turned out to be 523 mL/min/kg; the intrinsic clearance, rat liver microsomes is 296 mL/min/kg.

Consider `Cc1cncc(C2CCN(Cc3cnccn3)CC2)n1`, for which the MDR1-MDCK efflux ratio worked out at 0.65; the intrinsic clearance, human liver microsomes was at most 4.74 mL/min/kg; the intrinsic clearance, rat liver microsomes was 60.6 mL/min/kg; the aqueous solubility came out at 67.8 µg/mL (≈ 252 µM).

Turning to `COc1cccc(OCCCN)c1-c1cc(Nc2cnc(C#N)cn2)n[nH]1`, the MDR1-MDCK efflux ratio came out at 17.5; the intrinsic clearance, human liver microsomes was at most 4.74 mL/min/kg; the intrinsic clearance, rat liver microsomes amounted to 512 mL/min/kg; the aqueous solubility was found to be 39.1 µg/mL (≈ 107 µM).

As for `CC1CCC(N(Cc2nnc(C3CCC3)o2)C2CCC(O)CC2)CC1` (stereo unspecified), the MDR1-MDCK efflux ratio came to 2.03; the intrinsic clearance, human liver microsomes came to 230 mL/min/kg; the intrinsic clearance, rat liver microsomes was found to be 1610 mL/min/kg.

For `O=c1c2sccc2nc2n1CCN(Cc1cc(F)ccc1F)CC2`, the MDR1-MDCK efflux ratio was 0.463; the intrinsic clearance, human liver microsomes is 121 mL/min/kg; the intrinsic clearance, rat liver microsomes is 2180 mL/min/kg.
